Patent publication US7078395B1, “Methods for treating or preventing cancer by preventing, inhibiting or arresting cell cycling” (priority 1999, dated 2006)
“And” between values parts separate entries of the source, which are not always exact repeats. Equal entries are not always repeated.

How the values were obtained:
[1] = tested on: nitrosomethylurea-induced mammary tumours; experiment: Growth of NMU-induced mammary tumours in intact rats; type: in vivo, rat
Method: The effect of 2-MeOEMATE on mammary tumour growth was examined in a preliminary study using Ludwig rats (Harlan Olac, Bicester, UK) in which tumours were induced by inoculation of NMU. Tumour development was monitored regularly and when 0.5-1.0 cm^3 in volume, animals received vehicle (propylene glycol, 200 μl/day, p.o.), 2-MeOEMATE (20 mg/kg/day, p.o.) or 2-MeOE1 (20 mg/kg/day, p.o.) daily for an 11 day period. Tumour length and width was measured with callipers and tumour volumes calculated as described (21).

[2] = tested on: MCF-7 cells; experiment: TUNEL analysis of apoptosis; type: cell-based; conditions: 10 μM, 48 h
Source text: The ability of 2-MeOEMATE to induce apoptosis in MCF-7 cells was examined by TUNEL analysis using an in situ cell death detection kit (Boehringer Manheim UK Ltd., Lewes, East Sussex, UK). Cells were fixed and permeabilised according to the manufacturers' instructions. Stained apoptotic cells were quantitated by flow cytometry.

[3] = tested on: breast tumour-derived fibroblasts; experiment: Morphology and cell number (Coulter counter) of fibroblasts; type: cell-based; conditions: 24 h
Method: For the culture of fibroblasts, resected breast tumour tissue was minced and incubated in EMEM for 18-24 h at 37° C. with collagenase (200 μg/ml). The dispersed cells were harvested by centrifugation and washed twice with medium to remove collagenase. Dispersed cells were seeded into culture flasks and grown to confluence before passaging on a weekly basis. For experimental purposes 12 well multi-well plates or 25 cm^2 flasks were seeded with fibroblasts and grown to 70-80% confluency. Cells were washed with PBS and exposed to drugs for 24 h before determining cell numbers using a Coulter counter.
(§1) Photomicrographs of control and treated cells were taken under normal conditions of light and exposure using an Olympus SL35 Type 12 camera under an Olympus CK2 microscope (×100 magnification).

[4] = tested on: MCF-7 breast cancer cells; experiment: Cell Titer 96 cell proliferation assay, 4-day drug exposure; type: cell-based
Method: (§2) MCF-7 (ER+) and MDA-MB-231 (ER−) breast cancer cells were obtained from the American Type Culture Collection (Rockville, Md.). Cells were routinely cultured in 25 cm^2 culture flasks in Eagle's minimum essential medium (EMEM) with Hepes buffer (20 mM). This medium was supplemented with L-glutamine (2 mM), sodium hydrogen carbonate (10 mM), 1% non-essential amino acids and 5% (v/v) foetal calf serum (FCS). Before adding test compounds, cells were washed with phosphate-buffered saline (PBS) and treatments added in phenol-red free medium containing 2% stripped FCS and supplements. The effects of 2-MeOE1 or 2-MeOEMATE on the growth of MCF-7 cells was assessed using a Cell Titer 96 cell proliferation assay (Promega, Southampton, Hants, UK) according to the manufacturers' instructions. For this, cells (5000 per well) were cultured in medium containing phenol-red and 10% FCS and were exposed to a drug for 4 days before the assay was performed. For MDA-MB-231 cells, cell numbers were determined using a Coulter counter.

[5] = (18, 19); cited from earlier work
[6] = tested on: MCF-7 breast cancer cells; experiment: Irreversible inhibition of cell growth, Stage 1 and Stage 2 (Coulter cell counter); type: cell-based; conditions: for cell numbers, % of the control cell number, Stage 1: 6 days
Method: MCF-7 breast cancer cells were seeded into multi-well culture plates at a density of 10^5 cells/well. Cells were allowed to attach and grown until about 30% confluent when they were treated as follows:
Cells were grown for 6 days in growth medium containing the above drugs with changes of medium/drug every 3 days. At the end of this period cell numbers were counted using a Coulter cell counter.
After treatment of cells for a 6-day period with the above drugs cells were re-seeded at a density of 10^4 Cells/well. No further treatments were added. Cells were allowed to continue to grow for a further 6 days in the presence of growth medium. At the end of this period cell numbers were again counted.
Stages 1 and 2 described above were repeated using Control—no treatment, EMATE 20 μM and EMATE 5 μM.
MCF-7 breast cancer cells were seeded into multi-well culture plates at a density of 10^5 cells/well. Cells were allowed to attach and grown until about 30% confluent when they were treated as follows: • Control—no treatment • Compound of Interest (COI) 20 μM
Cells were grown for 6 days in growth medium containing the COI with changes of medium/COI every 3 days. At the end of this period cell numbers were counted using a Coulter cell counter.
After treatment of cells for a 6-day period with the COI cells were re-seeded at a density of 10^4 cells/well. No further treatments were added. Cells were allowed to continue to grow for a further 6 days in the presence of growth medium. At the end of this period cell numbers were again counted.

[7] = tested on: MCF-7 breast cancer cells; experiment: Cell morphology by photomicrographs; type: cell-based; conditions: 1 μM, 24 h
Method: as §2, §1

[8] = molecular target: T1, steroid sulphatase (Homo sapiens, UniProt P08842); conditions: compared with EMATE (18, 19); cited from earlier work
T1 sequence (P08842 22-583): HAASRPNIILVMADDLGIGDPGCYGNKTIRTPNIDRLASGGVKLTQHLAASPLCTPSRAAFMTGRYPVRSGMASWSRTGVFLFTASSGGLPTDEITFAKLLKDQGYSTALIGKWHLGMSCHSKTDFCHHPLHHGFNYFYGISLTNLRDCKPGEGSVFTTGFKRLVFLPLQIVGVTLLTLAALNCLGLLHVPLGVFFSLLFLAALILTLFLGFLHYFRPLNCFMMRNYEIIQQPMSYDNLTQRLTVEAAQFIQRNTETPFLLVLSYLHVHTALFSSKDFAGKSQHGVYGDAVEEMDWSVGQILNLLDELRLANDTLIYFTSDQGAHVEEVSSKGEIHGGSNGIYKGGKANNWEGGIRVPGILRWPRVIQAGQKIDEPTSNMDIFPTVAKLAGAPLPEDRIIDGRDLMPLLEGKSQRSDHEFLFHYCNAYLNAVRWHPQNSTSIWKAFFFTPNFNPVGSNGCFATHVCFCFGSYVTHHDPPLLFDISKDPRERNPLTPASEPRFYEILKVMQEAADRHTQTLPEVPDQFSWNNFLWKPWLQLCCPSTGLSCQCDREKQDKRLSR

[9] = Homo sapiens, MCF7, 96 h, read-out: inhibition of proliferation of MCF-7 cells

SMILES: COc1cc2c(cc1OS(N)(=O)=O)CCC1C2CC[C@]2(C)C(=O)CCC12 (stereo partly drawn) [2-MeOEMATE, 2-methoxyoestrone-3-O-sulphamate]
- reduction in tumour volume ([1]; 20 mg/kg/day, p.o., 11 days, individual animals): almost complete regression of ⅔ tumours and 8% and tumours regressed rapidly and were barely palpable and regressed almost completely
- regrowth of regressed tumours ([1]; monitored for a further 33 days after 11-day dosing): no regrowth of tumours was detected
- fluorescently labelled (TUNEL positive) cells as proportion of the cell population [2]: approximately 10%
- effect on fibroblast morphology ([3]; 1 μM): little effect on cell morphology
- effect on fibroblast morphology ([3]; 5 μM): rounding of a significant proportion of fibroblasts
- effect on the number of fibroblasts [3]: did not reduce the number of fibroblasts
- inhibition of proliferation of MCF-7 cells ([4]; 10 μM, 4 days): no further effect on cell proliferation
- inhibition at 0.1 µM [4, 9]: 29%
- inhibition at 1 µM [4, 9]: 52%
- oestrogenicity [5]: devoid of oestrogenicity
- cell numbers, % of the control cell number, Stage 1 ([6]; 1 m (so in the source)): 52%
- cell numbers, % of the control cell number, Stage 1 ([6]; 5 μm): 43%
- effect on cell numbers, Stage 2 (irreversible growth inhibition) ([6]; re-seeded after 6-day treatment, further 6 days without drug): severely growth restricted
- effect on cell morphology [7]: significant increase in the number of rounded and detached cells
- potency as a steroid sulphatase inhibitor [8]: equipotent with EMATE
